Experiments:
NCI-H358 cells = experiment: 2D proliferation assay; assay type: cell-based, human; details: standard 2D culture conditions
Experimental: 263 (ATCC® CCL-224™; grown in RPMI 10% FCS) and SK-MEL-28 (ATCC® HTB-
264 72™, grown in EMEM 10% FCS). Cell cultures were incubated at 37 °C and 5% CO2 in
265 a humidified atmosphere, with medium change or subcultivation 2-3 times a week.
269 Cells were lysed in 1x lysis buffer (Cell Signaling #9803) and protein concentration
270 normalized to 10µg/µL. Proteins were separated by SDS-Page and transferred to
271 Nitrocellulose membranes (BioRad) according to standard protocols. Membranes were
273 (Milipore #06-182) and Tubulin (Cell Signaling #2144) in 5% BSA in TBST blocking
274 buffer. After primary antibody incubation membranes were incubated with anti-rabbit
275 IgG secondary antibody (Dako #P0448) and detected with ECL (GE Healthcare Life
278 Compound treatment of cells
279 Synthesized or purchased (ARS 1620) compounds were dissolved in 100% DMSO and
280 stored at a concentration of 10mM at -20°C. Compounds were either serially diluted in
281 medium or directly added to reach the intended final concentration. DMSO was added
282 to control reactions as reference to keep the final DMSO concentration in all samples
285 2D proliferation assay: […]
Quantification of living cells […]
291 manufacturer’s recommendation. Luminescence was read in a 2030 VICTOR X5 (Perkin […]
305 were trypsinized, counted and plated in 60 µL culture medium containing 2% FCS […]

GTP-KRASG12D::SOS1 = GTP-KRASG12D::SOS1 (Homo sapiens, UniProt P01116, G12D); experiment: KRASG12D::SOS1 GTP TR-FRET assay
GDP-KRASG12D = GDP-KRASG12D (Homo sapiens, UniProt P01116, G12D); experiment: KD(HSQC) NMR; assay type: binding
Experimental: (§1) 80 difference spectrum. Mixtures of four fragments (each at 250 µM) were incubated in 25
(§2) 82 a mixture of GCP-KRASG12D and GDP-KRASG12V (each 4 µM). Binders were identified
(§3) 83 by comparing pre-recorded reference spectra with the STD difference spectrum.
(§4) 84 Deconvolution and confirmation of primary FBS hits obtained from STD-NMR and
(§5) 85 MST was performed using 2D 1H/15N TROSY NMR experiments(2) collected on a
(§6) 86 Bruker Avance III 600 MHz spectrometer equipped with a 5 mm z-gradient TCI cryo-
(§7) 87 probe. Samples were prepared directly before data acquisition using a Tecan Freedom
(§8) 88 Evo pipetting system and delivered by a Bruker Sample Rail to the magnet. Each sample
(§9) 89 contained either 50 µM 15N labeled GDP-KRASG12D or GCP-KRASG12D in 25 mM Tris-
(§10) 90 d11, 100 mM NaCl, 2 mM MgCl2, 0.5 mM TCEP pH 7.4 and 8% (v/v) D2O. Proteins […]
(§11) 92 d6DMSO. Spectra were recorded with 32 transients and 64 data points in the indirect […]
(§12) 100 support compound optimization. 1H/15N SoFast HMQC experiments(3) were recorded in […]
(§13) 102 recorded on a Avance III 700MHz spectrometer equipped with a cryogenically cooled […]
(§14) 107 DMSO. KDs were calculated from the differences in chemical shift induced by t he small […]
(§15) 109 dimension were calculated according to the following equation: […]
(§16) 120 (MicroCalTM, LLC Northampton, MA). Protein solutions were measured in 20 mM […]
(§17) 125 were analyzed with the MicroCal PEAQ-ITC analysis software package. […]

GCP-KRASG12D = GCP-KRASG12D (Homo sapiens, UniProt P01116, G12D); experiment: KD(HSQC) NMR; assay type: binding
Experimental: as §1, §2, §3, §4, §5, §6, §7, §8, §9, §10, §11, §12, §13, §14, §15, §16, §17

GTP-KRASG12D::SOS1, sequence (P01116 1-169 isoform P01116-2 G12D): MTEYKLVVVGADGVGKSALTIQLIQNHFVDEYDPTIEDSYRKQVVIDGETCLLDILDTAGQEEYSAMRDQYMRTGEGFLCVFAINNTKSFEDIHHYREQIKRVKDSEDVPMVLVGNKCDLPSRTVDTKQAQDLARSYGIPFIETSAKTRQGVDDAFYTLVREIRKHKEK
GDP-KRASG12D, sequence (P01116 1-169 isoform P01116-2 G12D): as above
GCP-KRASG12D, sequence (P01116 1-169 isoform P01116-2 G12D): as above

| SMILES | antiproliferative effect (NCI-H358 cells) | EC50 (GTP-KRASG12D::SOS1) [µM] | IC50 (GTP-KRASG12D::SOS1) [µM] | Kd (GDP-KRASG12D) [µM] | Kd (GCP-KRASG12D) [µM] |
| --- | --- | --- | --- | --- | --- |
| Cn1cnc(Cn2ccc3ccc(CNCc4[nH]c5ccccc5c4[C@H]4NC(=O)c5ccc(O)cc54)cc32)c1 [Compound 1] | No antiproliferative effect | – | – | – | – |
| CN(C)Cc1[nH]c2ccccc2c1[C@H]1NC(=O)c2ccc(O)cc21 [Compound 18] | – | 33 | 33 | 16 | 17 |

— article PMC6689897, “Drugging an undruggable pocket on KRAS” (Proceedings of the National Academy of Sciences of the …, 2019)
